Consider 14 molecules from patent US10287269B2, “Pyrazolyl pyrimidinone compounds as PDE2 inhibitors” (Merck Sharp & Dohme Corp., priority 2015, dated 2019).

The target of the first test is T1, Rhesus PDE2A3 (Macaca mulatta, UniProt B3VTJ2).
T1 construct: made in house; host or cells: AD293 cells, transient transfection, pcDNA3.3-TOPO; lysate supernatant used as enzyme
T1 sequence (B3VTJ2 1-941): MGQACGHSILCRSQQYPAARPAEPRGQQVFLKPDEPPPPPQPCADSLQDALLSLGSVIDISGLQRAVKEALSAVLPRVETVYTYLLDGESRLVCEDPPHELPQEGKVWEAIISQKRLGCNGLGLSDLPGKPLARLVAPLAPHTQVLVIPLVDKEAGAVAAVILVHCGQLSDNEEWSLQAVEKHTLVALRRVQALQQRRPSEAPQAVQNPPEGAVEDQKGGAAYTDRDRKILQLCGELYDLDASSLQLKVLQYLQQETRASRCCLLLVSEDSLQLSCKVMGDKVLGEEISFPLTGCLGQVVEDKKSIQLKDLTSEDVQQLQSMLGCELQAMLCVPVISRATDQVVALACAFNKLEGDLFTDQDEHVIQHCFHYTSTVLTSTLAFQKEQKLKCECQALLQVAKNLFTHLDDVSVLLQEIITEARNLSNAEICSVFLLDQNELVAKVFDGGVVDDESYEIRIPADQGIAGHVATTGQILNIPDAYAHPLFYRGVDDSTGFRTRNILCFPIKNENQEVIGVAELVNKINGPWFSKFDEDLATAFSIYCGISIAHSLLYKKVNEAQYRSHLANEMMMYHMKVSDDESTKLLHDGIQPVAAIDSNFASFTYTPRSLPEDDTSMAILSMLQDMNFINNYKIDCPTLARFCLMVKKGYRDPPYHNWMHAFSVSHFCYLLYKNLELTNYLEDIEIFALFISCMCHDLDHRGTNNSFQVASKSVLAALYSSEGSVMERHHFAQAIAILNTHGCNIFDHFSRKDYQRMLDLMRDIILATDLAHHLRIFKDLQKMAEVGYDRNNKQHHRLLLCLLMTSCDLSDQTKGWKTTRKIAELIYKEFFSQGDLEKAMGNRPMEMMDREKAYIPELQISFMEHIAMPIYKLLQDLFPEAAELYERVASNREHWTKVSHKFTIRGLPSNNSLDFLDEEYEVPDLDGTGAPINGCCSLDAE
The experiment in a line: PDE2 fluorescence polarization (IMAP FP) inhibition assay, rhesus enzyme. Format: biochemical, rhesus macaque. The conditions noted are these: Lab A; read-out: Rhesus PDE2 Ki (nM) Lab A. The protocol:
The activity of the compounds in accordance with the present invention as PDE2 inhibitors may be readily determined using a fluorescence polarization (FP) methodology (Huang, W., et al., J. Biomol Screen, 2002, 7: 215).
In a typical experiment the PDE2 inhibitory activity of the compounds of the present invention was determined in accordance with the following experimental method. Rhesus PDE2A3 was amplified from rhesus macaque brain cDNA (Biochain Institute, Hayward, Calif.) using primers based on human PDE2A sequence (accession NM_002599.3) where the forward primer containing a Kozak consensus was 5′-[…]-3′ and the reverse primer was 5′-[…]-3′. Amplification with Easy-A High-Fidelity PCR cloning enzyme (Stratagene, La Jolla, Calif.) was 95° C. for 2 minutes followed by thirty three cycles of 95° C. for 40 seconds, 52° C. for 30 seconds, and 72° C. for 2 minutes 48 seconds. Final extension was 72° C. for 7 minutes. The PCR product was TA cloned into pcDNA3.3-TOPO (Invitrogen, Carlsbad, Calif.) according to standard protocol. A consensus sequence was developed from multiple clones and then deposited into GenBank (EU812167). AD293 cells (Stratagene, La Jolla, Calif.) with 70-80% confluency were transiently transfected with rhesus PDE2A3/pcDNA3.3-TOPO using Lipofectamine 2000 according to manufacturer specifications (Invitrogen, Carlsbad, Calif.). Cells were harvested 48 hours post-transfection and lysed by sonication (setting 3, 10×5 sec pulses) in a buffer containing 20 mM HEPES pH 7.4, 1 mM EDTA and Complete Protease Inhibitor Cocktail Tablets (Roche, Indianapolis, Ind.). Lysate was collected by centrifugation at 75,000×g for 20 minutes at 4° C. and supernatant utilized for evaluation of PDE2 activity. The fluorescence polarization assay for cyclic nucleotide phosphodiesterases was performed using an IMAP® FP kit supplied by Molecular Devices, Sunnyvale, Calif. (product # R8139). […] Assays were performed at room temperature in 384-well microtiter plates with an incubation volume of 20.2 μL. Solutions of test compounds were prepared in DMSO and serially diluted with DMSO to yield 8 μL of each of 10 solutions differing by 3-fold in concentration, at 32 serial dilutions per plate. […] 0% of inhibition is determined by using DMSO (1% final concentrations).
A Labcyte Echo 555 (Labcyte, Sunnyvale, Calif.) is used to dispense 200 nL from each well of the titration plate to the 384 well assay plate. Ten microliters of a solution of enzyme (1/2000 final dilution from aliquots; sufficient to produce 20% substrate conversion) was added to the assay plate. Next 10 uL of a separate solution of the substrate FAM-labeled cAMP (50 nM final concentration product # R7506 from Molecular Devices) and the activator cGMP (1 uM final concentration), prepared in the assay buffer (10 mM Tris HCl, pH 7.2, 10 mM MgCl2, 0.05% NaN3 0.01% Tween-20, and 1 mM DTT) was added to the assay plate and shaken to mix. The reaction is allowed to proceed at room temperature for 60 minutes. A binding solution is then made from the kit components, comprised of 80% Solution A, 20% Solution B and binding reagent at a volume of 1/600 the total binding solution. The enzymatic reaction is stopped by addition of 60 μl, of the binding solution to each well of the assay plates and the plates are sealed and shaken for 30 seconds. The plate was incubated at room temperature for at least one hour prior to determining the fluorescence polarization (FP). The parallel and perpendicular fluorescence of each well of the plate was measured using a Tecan Genios Pro plate reader (Tecan, Switzerland) or Perkin Elmer EnVision™ plate reader (Waltham, Mass.). Fluorescence polarization (mP) was calculated from the parallel (S) and perpendicular (P) fluorescence of each sample well and the analogous values for the median control well, containing only substrate (So and Po), using the following equation: Polarization (mP)=1000*(S/So−P/Po)/(S/So+P/Po).
Background: Polarisation of emitted light reports the rotation of a fluorescent probe.
As for `COCc1ccc(C(C)n2cc(-c3cc(=O)[nH]c(C)n3)cn2)c(Cl)c1` (single isomer, unassigned) [Example 104, (S)- or (R)-6-(1-(1-(2-chloro-4-(methoxymethyl)phenyl)ethyl)-1H-pyrazol-4-yl)-2-methylpyrimidin-4(3H)-one], the Ki (as a rule, a dissociation constant, usually derived from enzyme kinetics or from competition with a known ligand) is greater than 2970 nM.
Still for that read-out and setting: the value for `Cc1nc(-c2cnn(C(C)c3ccc(OC(F)F)cc3C)c2)cc(=O)[nH]1` (single isomer, unassigned) [Example 90, (S)- or (R)-6-(1-(1-(4-(difluoromethoxy)-2-methylphenyl)ethyl)-1H-pyrazol-4-yl)-2-methylpyrimidin-4(3H)-one] was 150 nM.
For the molecule `Cc1nc(-c2cnn(C(C)c3ccc(OC(F)F)cc3F)c2)cc(=O)[nH]1` (single isomer, unassigned) [Example 87, (R)- or (S)-6-(1-(1-(4-(difluoromethoxy)-2-fluorophenyl)ethyl)-1H-pyrazol-4-yl)-2-methylpyrimidin-4(3H)-one], the Ki amounted to 480 nM.
Still for that read-out and setting: the value for `CCc1nc(-c2cnn(C(C)c3ccc(C(F)(F)F)cc3F)c2)cc(=O)[nH]1` (single isomer, unassigned) [Example 86, (S)- or (R)-2-ethyl-6-(1-(1-(2-fluoro-4-(trifluoromethyl)phenyl)ethyl)-1H-pyrazol-4-yl)pyrimidin-4(3H)-one] was 146 nM.
Same read-out and setting: the value for `Cc1ccc(C(C)n2cc(-c3cc(=O)[nH]c(C)n3)cn2)c(F)c1` (single isomer, unassigned) [Example 150, (R)- or (S)-6-(1-(1-(2-fluoro-4-methylphenyl)ethyl)-1H-pyrazol-4-yl)-2-methylpyrimidin-4(3H)-one] was 695 nM; that for `Cc1nc(-c2cnn(C(C)c3ccc(C(F)(F)F)cc3Cl)c2)cc(=O)[nH]1` (single isomer, unassigned) [Example 84, (S)- or (R)-6-(1-(1-(2-chloro-4-(trifluoromethyl)phenyl)ethyl)-1H-pyrazol-4-yl)-2-methylpyrimidin-4(3H)-one] was 179 nM.

Still in this test, the particulars now being: Lab B; read-out: Rhesus PDE2 Ki (nM) Lab B.
In the case of `CCCc1ccc(C(C)c2cnn(-c3cc(=O)[nH]c(C)n3)c2)cc1` (centres unmarked) [Example 43, 2-methyl-6-(4-(1-(4-propylphenyl)ethyl)-1H-pyrazol-1-yl)pyrimidin-4(3H)-one], the Ki is 313 nM.
Regarding `CCCC(c1ccc(C(F)(F)F)cc1)n1ccc(-c2cc(=O)[nH]c(C)n2)n1` (centres unmarked) [Example 160, 2-methyl-6-(1-(1-(4-(trifluoromethyl)phenyl)butyl)-1H-pyrazol-3-yl)pyrimidin-4(3H)-one], the Ki was found to be 2300 nM.
On the same count and under the same terms, the value for `Cc1nc(-n2cc(C(C)c3ccc(C4CCC4)cc3)cn2)cc(=O)[nH]1` (centres unmarked) [Example 38, 6-(4-(1-(4-cyclobutylphenyl)ethyl)-1H-pyrazol-1-yl)-2-methylpyrimidin-4(3H)-one] was 303 nM.
The same measure, in the same setting: the value for `Cc1nc(-n2cc(C(C)c3ccc(C(F)(F)F)c(F)c3)cn2)cc(=O)[nH]1` (single isomer, unassigned) [Example 51, (S)- or (R)-6-(4-(1-(3-fluoro-4-(trifluoromethyl)phenyl)ethyl)-1H-pyrazol-1-yl)-2-methylpyrimidin-4(3H)-one] was greater than 1000 nM; that for `Cc1nc(-c2cc([C@@H](C)c3ccc(C(F)(F)F)cc3)n(C)n2)cc(=O)[nH]1` (single isomer, unassigned) [Example 25] was 3680 nM; that for `Cc1nc(-c2c(C)nn(C(C)c3ccc(C(F)(F)F)cc3)c2C)cc(=O)[nH]1` (centres unmarked) [Example 79, 6-(3,5-dimethyl-1-(1-(4-(trifluoromethyl)phenyl)ethyl)-1H-pyrazol-4-yl)-2-methylpyrimidin-4(3H)-one] was 727 nM.
For the molecule `COCCc1ccc(C(C)c2cnn(-c3cc(=O)[nH]c(C)n3)c2)cc1` (centres unmarked) [Example 41, 6-(4-(1-(4-(2-methoxyethyl)phenyl)ethyl)-1H-pyrazol-1-yl)-2-methylpyrimidin-4(3H)-one], the Ki was 7300 nM.
Consider `Cc1nc(-c2cnn(C(C)c3cccc(C(F)(F)F)c3)c2)cc(=O)[nH]1` (centres unmarked) [Example 73, 2-methyl-6-(1-(1-(3-(trifluoromethyl)phenyl)ethyl)-1H-pyrazol-4-yl)pyrimidin-4(3H)-one], for which the Ki amounted to 6380 nM.
